Reference: patent US20250025438A1, “Derivative of aspartic acid and use thereof in treatment of metabolic diseases such as hepatic fibrosis and non-alcoholic hepatitis” (SHENZHEN JINGTAI TECHNOLOGY CO., LTD., priority 2021, published 2025)
Where a name gives a salt, the structure may show the parent alone. Where a SMILES comes first, the peptide text is derived from it.

Key:
Format in all cases: cell-based
COL1A1 = test: In vitro efficacy in semi-activated LX2 cells, qPCR: COL1A1; details: Homo sapiens, 48 hours, Q-PCR, read-out: COL1A1 mRNA inhibition rate; for inhibition at 25 µM: LX-2, test concentration 25 μM; for inhibition at 50 µM: LX-2, 50 µM
COL3A1 = test: In vitro efficacy in semi-activated LX2 cells, qPCR: COL3A1; details: Homo sapiens, 48 hours, Q-PCR, read-out: COL3A1 mRNA inhibition rate; for inhibition at 25 µM: LX-2, test concentration 25 μM; for inhibition at 50 µM: LX-2, 50 µM
α-SMA [1] = test: In vitro efficacy in semi-activated LX2 cells, qPCR: α-SMA; details: test concentration 25 μM, 48 hours, Q-PCR, read-out: α-SMA mRNA inhibition rate
In short: (§1)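 Relative mRNA levels, from SYBR Green Q-PCR with relative quantification, are reported for LX2 cells treated for 48 hours with 50 µM test compound, added after 12 hours of adherent growth.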

IL-1β = test: In vitro efficacy in semi-activated LX2 cells, qPCR: IL-1β; details: Homo sapiens, 48 hours, Q-PCR, read-out: IL-1β mRNA inhibition rate; for inhibition at 25 µM: LX-2, test concentration 25 μM
COL1A2 [2] = test: In vitro efficacy in semi-activated LX2 cells, qPCR: COL1A2; details: Homo sapiens, 48 hours, Q-PCR, read-out: COL1A2 mRNA inhibition rate; for inhibition at 25 µM: LX-2, test concentration 25 μM
TNF-α [3] = test: In vitro efficacy in semi-activated LX2 cells, qPCR: TNF-α; details: Homo sapiens, LX-2, 48 hours, Q-PCR, read-out: TNF-α mRNA inhibition rate
Experimental: (§2) Test compounds were added to the LX-2 cells respectively, and total RNA in the cells was extracted 48 hours later. This experiment was performed strictly in accordance with the instructions of the Total RNA Kit. The steps were as follows (note: this experiment was performed on ice throughout the entire process, and special RNase-free tips were used throughout the entire process): • 1) The 12-well cell culture plate was taken out from the incubator, the cell culture medium was discarded, the cells were washed twice with 1 mL of 1×PBS, and a negative pressure suction device was used to fully remove PBS; • 2) 350 μL of TRK Lysis Buffer mixture/well was prepared as needed (mixture preparation method: 1 mL of TRKLysis Buffer+20 μL of β-mercaptoethanol), vortexed and mixed well. 350 μL was added to each well of the 12-well cell culture plate, and allowed to stand at room temperature for 5 minutes to fully lyse the cells; • 3) 70% ethanol/well was prepared as needed, vortexed and mixed well. 350 μL was added to each well of the 12-well cell culture plate, mixed well by shaking, and transferred to the spin column (spin column+collection tube were assembled); • 4) Centrifugation was performed at 4° C., 12000 g for 60 sec. The waste liquid was discarded after centrifugation, while the spin column was kept; • 5) 500 μL of RNA Wash Buffer I was added, centrifuged at 4° C., 12000 g for 60 sec, the waste liquid was discarded after centrifugation, and the collection column was kept; • 6) 500 μL of RNA Wash Buffer II (confirmed that ethanol had been added) was added, centrifuged at 4° C., 12000 g for 60 sec, the waste liquid was discarded after centrifugation, and the collection column was kept; • 7) step 6) was repeated once again, centrifugation was performed at 4° C., 12000 g for 90 sec, the waste liquid was discarded after centrifugation, and the collection column was kept; • 8) Centrifugation was performed at 4° C., 12000 g for 120 sec to ensure that the spin column was fully dried; • 9) The dried spin column was inserted into a new 1.5 mL EP tube, and 30 μL of DEPC water was added to the membrane in the center of the spin column. It should be careful not to touch the EP tube cover in this step. It was allowed to stand at room temperature for 5 minutes to ensure that the RNA was fully dissolved in DEPC water. Centrifugation was performed at 4° C., 12000 g for 60 sec, and the EP tube was kept; • 10) NanoDrop ultra-micro-volume spectrophotometer was used to detect RNA concentration;
(§3) 5.2 Reverse transcription of RNA into cDNA: According to the instructions of PrimeScript™ RT reagent Kit (Perfect Real Time), the specific experimental steps were as follows:
(§4) 5.3 Q-PCR detection of target gene expression: According to the instructions of Power SYBR® Green PCR Master Mix, the specific operations were as follows:
(§5) After the reaction was completed, the amplification curve and dissolution curve of Q-PCR were confirmed, and the relative quantification method ([…]) was used to perform data analysis on the experimental results.
(§6) LX2 cells were passaged and plated normally. After adherent growth for 12 hours, 50 µM of the test compound was added. After 48 hours, the cells were collected, total RNA was extracted, and Q-PCR was used to detect the changes in the mRNA expression levels of liver fibrosis-related genes (ACTA2 encoding α-SMA, COL1A1 and COLIA2 encoding collagen I, COL3A1 encoding collagen III, SMAD3 encoding Smad3) and inflammation-related genes (IL1β encoding IL-1β, TNFα encoding TNFα) (for specific methods, see 5. Q-PCR detection of target gene expression as described above). α-SMA was a marker of hepatic stellate cell activation, and collagen I and collagen III were the main components of extracellular matrix deposition.

[4] = test system: collagen I and collagen III; test: Semi-activated LX2 cells, qPCR: collagen I and collagen III at the mRNA level; details: 48 hours, Q-PCR, Table 2
In short: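 LX-2 human hepatic stellate cells, adhered 12 h, were treated with 50 µM test compound for 48 h. Total RNA was extracted, and COL1A1, COL1A2 and COL3A1 mRNA were measured by SYBR Green qPCR.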

[5] = test system: liver fibrosis-related genes; test: Semi-activated LX2 cells, qPCR: liver fibrosis-related genes overall; details: 48 hours, Q-PCR, Table 2
Experimental: as §2, §4, §6

α-SMA [6] = test: Semi-activated LX2 cells, Western blot: α-SMA protein; details: 50-400 μM, 48 hours, FIG. 2, vs 50 μM aspartic acid
NS3TP1 = test: Regulation of NS3TP1 in semi-activated LX2 cells, qPCR; details: LX-2 cells, 48 hours, Q-PCR, vs control group
Experimental: as §2, §3, §4, §5
LX2 cells were passaged and plated normally. […] After 48 hours, the cells were collected, total RNA was extracted, and the expression of NS3TP1 gene was detected using Q-PCR method.

collagen I = test: Activated LX2 cells (TGFβ1), Western blot: Collagen I; details: LX2 cells stimulated with TGFβ1 (5 ng/mL), 24 hours, FIG. 4
α-SMA [7] = test: Activated LX2 cells (TGFβ1), Western blot: α-SMA; details: LX2 cells stimulated with TGFβ1 (5 ng/mL), 24 hours, FIG. 4
FN = test: Semi-activated LX2 cells, Western blot: FN protein; details: 50-400 μM, 48 hours, FIG. 3, vs 50 μM aspartic acid
Smad3 = test: In vitro efficacy in semi-activated LX2 cells, qPCR: Smad3; details: Homo sapiens, 48 hours, Q-PCR, read-out: Smad3 mRNA inhibition rate
In short: as §1

TNF-α [8] = test: In vitro efficacy in semi-activated LX2 cells, qPCR: TNF-α; details: Homo sapiens, 48 hours, Q-PCR, read-out: TNF-α mRNA inhibition rate
COL1A2 [9] = test: In vitro efficacy in semi-activated LX2 cells, qPCR: COL1A2; details: Homo sapiens, LX-2, 48 hours, Q-PCR, read-out: COL1A2 mRNA inhibition rate
Experimental: as §2, §3, §4, §5, §6

[10] = LX-2, test concentration 12.5 μM

Work on N[C@@H](CC(=O)OCOC(=O)C[C@H](N)C(=O)O)C(=O)O [Compound 55, (2S,2'S)-4,4′-(methylenebis (oxy))bis (2-amino-4-oxobutyric acid) hydrochloride] yielded an inhibition at 25 µM (COL1A1) of 1 to 10%, an inhibition at 25 µM (COL3A1) of 1 to 10% and an inhibition at 25 µM (α-SMA [1]) of 1 to 10%. It also gave an inhibition at 25 µM (IL-1β) of 1 to 10% and an inhibition at 25 µM (COL1A2 [2]) of 1 to 10%.
COC(=O)[C@H](Cc1ccccc1)NC(=O)[C@@H](N)CC(=O)O [Compound 48] (HELM PEPTIDE1{D.F.[CO[*:1]]}$$$$V2.0) was tested, and the inhibition at 50 µM (COL1A1) was 25 to 50%, the inhibition at 50 µM (COL3A1) was 10 to 25% and the inhibition at 50 µM (TNF-α [3]) was 1 to 10%. The “inhibition of the expression of collagen I and collagen III at the mRNA level” value (“inhibition of the expression … at the mRNA level” below) [4] was “could inhibit”, the “inhibition of the mRNA expression levels of liver fibrosis-related genes (overall)” value [5] was “stronger effects” and the “inhibitory effect on α-SMA protein as compared to ASP” value (α-SMA [6]) was “stronger inhibitory effects”.
In the case of COC(=O)C[C@H](N)C(=O)OCCOC(=O)[C@@H](N)CC(=O)OC [Compound 77a, O′1,O1-(ethan-1,2-diyl)4-dimethyl (2S,2'S)-bis (2-aminosuccinate) hydrochloride], the “Up-regulation of NS3TP1” value (NS3TP1; 200 µM compound) is reported as “C (C represented that the up-regulation was 1~20%)”, the “expression of Collagen I in the cells” value (collagen I) is reported as “significantly decreased” and the “expression of α-SMA in the cells” value (α-SMA [7]) is reported as “significantly decreased”.
Work on N[C@@H](CS(=O)O)C(=O)O [Compound 46] yielded an inhibition at 25 µM (COL1A2 [2]) of 1 to 10%.
For CC(C)OC(=O)[C@@H](N)CC(=O)O [Compound 50, 1-isopropyl L-aspartic acid ester hydrochloride], the inhibition at 50 µM (COL1A1) was 25 to 50%, the inhibition at 50 µM (COL3A1) was 1 to 10% and the “inhibition of the expression … at the mRNA level” value [4] was “could inhibit”. The “inhibitory effect on FN protein expression as compared to ASP” value (FN) was “stronger inhibitory effects”.
In the case of CN[C@@H](CC(=O)O)C(=O)O [Compound 3], the inhibition at 12.5 µM (COL1A1; [10]) is reported as 25 to 50%, the inhibition at 12.5 µM (COL3A1; [10]) is reported as 1 to 10% and the inhibition at 12.5 µM (Smad3; [10]) is reported as 1 to 10%. For the same compound, the inhibition at 12.5 µM (IL-1β; [10]) was 1 to 10%, the inhibition at 12.5 µM (COL1A2 [2]; [10]) was 1 to 10% and the inhibition at 12.5 µM (TNF-α [8]; [10]) was 1 to 10%.
Work on CC(C)OC(=O)OCOC(=O)C[C@H](N)C(=O)O [Compound 52, 4-(((isopropoxycarbonyl)oxy)methyl) L-aspartic acid ester hydrochloride] yielded an inhibition at 50 µM (COL1A1) of 25 to 50%, an inhibition at 50 µM (COL1A2 [9]) of 1 to 10% and an inhibition at 50 µM (COL3A1) of 25 to 50%. For the same compound, the “inhibition of the expression … at the mRNA level” value [4] was “could inhibit”, the “inhibition of the mRNA expression levels of liver fibrosis-related genes (overall)” value [5] was “stronger effects” and the “inhibitory effect on α-SMA protein as compared to ASP” value (α-SMA [6]) was “stronger inhibitory effects”. For the same compound, the “inhibitory effect on FN protein expression as compared to ASP” value (FN) was “stronger inhibitory effects”.
In the case of COC(=O)C[C@H](N)C(=O)OCCOC(=O)C[C@H](N)C(=O)OC [Compound 78a, 4-(2-(S)-2-amino-4-methoxy-4-oxobutyryl)ethyl)1-methyl L-aspartic acid ester hydrochloride], the “Up-regulation of NS3TP1” value (NS3TP1; test concentration 12.5 μM) is reported as “C (C represented that the up-regulation was 1~20%)”, the “expression of Collagen I in the cells” value (collagen I) is reported as “significantly decreased” and the “expression of α-SMA in the cells” value (α-SMA [7]) is reported as “significantly decreased”.
C[S+]([O-])C[C@H](N)C(=O)O (stereo partly drawn) [Compound 45] gave an inhibition at 25 µM (COL1A1) of 1 to 10%, an inhibition at 25 µM (COL3A1) of 1 to 10% and an inhibition at 25 µM (α-SMA [1]) of 1 to 10%. It also gave an inhibition at 25 µM (Smad3; LX-2, test concentration 25 μM) of 1 to 10%, an inhibition at 25 µM (IL-1β) of 1 to 10% and an inhibition at 25 µM (COL1A2 [2]) of 1 to 10%. For the same compound, the inhibition at 25 µM (TNF-α [8]; LX-2, test concentration 25 μM) was 1 to 10%.
